The test system of the experiment is authentic SARS-CoV-2 Delta variant. As to conditions: 48 h.

Broadly, the IC50 is the concentration that inhibits the measured activity by half. Read a low IC50 as greater potency in that assay. Compound `CC[C@H](C)[C@H](NC(=O)[C@H](C)NC(=O)[C@H](CCC(=O)O)NC(=O)[C@H](CCC(=O)O)NC(=O)[C@H](CC(C)C)NC(=O)[C@H](CCCCN)NC(=O)[C@H](CCCCN)NC(=O)[C@H](CCSC)NC(=O)[C@H](CCC(=O)O)NC(=O)[C@H](Cc1ccc(O)cc1)NC(=O)[C@H](CCC(=O)O)NC(=O)[C@H](CC(C)C)NC(=O)[C@H](CC(=O)O)NC(=O)[C@H](CC(C)C)NC(=O)[C@H](Cc1ccccc1)NC(=O)[C@@H](NC(=O)[C@@H](NC(=O)[C@H](CC(N)=O)NC(=O)[C@@H](NC(=O)[C@H](CCC(N)=O)NC(=O)[C@H](CC(=O)O)NC(=O)[C@H](CC(C)C)NC(=O)[C@@H](N)CO)[C@@H](C)CC)C(C)C)[C@@H](C)O)C(=O)N[C@@H](CCCCN)C(=O)N[C@@H](CCCCN)C(=O)N[C@@H](CC(C)C)C(=O)N[C@@H](CCC(=O)O)C(=O)N[C@@H](CCC(=O)O)C(=O)N[C@@H](CO)C(=O)N[C@@H](Cc1ccc(O)cc1)C(=O)N[C@H](C(=O)N[C@@H](CC(=O)O)C(=O)N[C@@H](CC(C)C)C(=O)N[C@@H](CCCCN)C(=O)N[C@@H](CCC(=O)O)C(=O)N[C@@H](CC(C)C)C(=O)O)[C@@H](C)CC` [EK1] displayed an IC50 of 2860 nM.

For the origin of these results see PMC10184535, “An HR2-Mimicking Sulfonyl-γ-AApeptide Is a Potent Pan-coronavirus Fusion Inhibitor with Strong Blood–Brain Barrier Permeability, Long Half-Life, and Promising Oral Bioavailability” (ACS Central Science, 2023).
